From ChEMBL document CHEMBL5729210, “Benzodiazepine derivatives as RSV inhibitors” (2022)
Blank lines part the entries; values can stand above or below the compound they belong to.

Assay: RSV-A Assay: The description is Japanese.

- EC50: > 800 nM
SMILES: COCCOC(=O)c1nc2ccccc2n1CCOC

SMILES: O=C1Nc2ccccc2C(c2ccccc2)=N[C@@H]1Nc1nnc(-c2ccc(C(F)(F)F)nc2N2CC3CCC(C2)O3)o1
- EC50: in the range around 600 nM

SMILES: N#Cc1ccc(N2CCOCC2)c(-c2nnc(N[C@H]3N=C(c4ccccc4)c4ccccc4NC3=O)o2)n1
- EC50: < 400 nM

SMILES: O=C1Nc2ccccc2C(c2ccccc2)=N[C@@H]1Nc1nnc(-c2ncc(C3CC3)cc2N2CC3CCC(C2)O3)o1
- EC50: < 400 nM

SMILES: C#Cc1cnc(-c2nnc(N[C@H]3N=C(c4ccccc4)c4ccccc4NC3=O)o2)c(N2CCOCC2)c1
- EC50: < 400 nM

SMILES: COCCOc1cc(C#N)ccc1-c1nnc(N[C@H]2N=C(c3ccccc3)c3ccccc3NC2=O)o1
- EC50: < 400 nM

SMILES: CN1CCN(c2cc(C(F)(F)F)cnc2-c2nnc(N[C@H]3N=C(c4ccccc4)c4ccccc4NC3=O)o2)CC1=O
- EC50: > 800 nM

SMILES: O=C1Nc2ccccc2C(c2ccccc2)=NC1Nc1nnc(-c2ccccc2-n2cccn2)o1 (centres undefined)
- EC50: > 800 nM

- EC50: < 400 nM
SMILES: CCOC(=O)c1ncc(N2CCCC2)cc1N1CCOCC1

SMILES: Cc1cc(-c2nnc(N[C@H]3N=C(c4ccccc4)c4ccccc4NC3=O)o2)c(N2CCOCC2)s1
- EC50: < 400 nM

SMILES: Cc1noc(C)c1-c1cc(C#N)ccc1-c1nnc(N[C@H]2N=C(c3ccccc3)c3ccccc3NC2=O)o1
- EC50: > 800 nM

SMILES: N#Cc1ccc(-c2nnc(N[C@H]3N=C(c4ccccc4)c4ccccc4NC3=O)o2)c(-c2ccoc2)c1
- EC50: > 800 nM

SMILES: CN(CC(C)(C)O)c1cc(C(F)(F)F)cnc1-c1nnc(N[C@H]2N=C(c3ccccc3)c3ccccc3NC2=O)o1
- EC50: > 800 nM

SMILES: O=C1Nc2ccccc2C(c2ccccc2)=NC1Nc1nnc(-c2ccc(-n3cncn3)cc2)o1 (centres undefined)
- EC50: in the range around 600 nM

SMILES: C[C@@H]1COCCN1c1cc(C#N)ccc1-c1nnc(N[C@H]2N=C(c3ccccc3)c3ccccc3NC2=O)o1
- EC50: < 400 nM

SMILES: O=C1Nc2ccccc2C(c2ccccc2)=N[C@@H]1Nc1nnc(-c2nc3ccccc3cc2N2CCOCC2)o1
- EC50: < 400 nM

SMILES: Cc1ccc(-c2nnc(N[C@H]3N=C(c4ccccc4)c4ccccc4NC3=O)o2)c(N2CC3CCC(C2)O3)n1
- EC50: < 400 nM

SMILES: CN(C)c1cc(C(F)(F)F)cnc1-c1nnc(N[C@H]2N=C(c3ccccc3)c3ccccc3NC2=O)o1
- EC50: > 800 nM

SMILES: COCCn1nccc1-c1nnc(N[C@H]2N=C(c3ccccc3)c3ccccc3NC2=O)o1
- EC50: > 800 nM

SMILES: O=C1Nc2ccccc2C(c2ccccc2)=N[C@@H]1Nc1nnc(-c2ncc(C3=CCCCC3)cc2N2CCOCC2)o1
- EC50: in the range around 600 nM

SMILES: C[C@@H]1COCCN1c1cc(C#N)cnc1-c1nnc(N[C@H]2N=C(c3ccccc3)c3ccccc3NC2=O)o1
- EC50: < 400 nM

SMILES: COCCn1ccnc1-c1nnc(N[C@H]2N=C(c3ccccc3)c3ccccc3NC2=O)o1
- EC50: > 800 nM

SMILES: Cc1ccc(-c2nnc(N[C@H]3N=C(c4ccccc4)c4ccccc4NC3=O)o2)c(N2C3CCC2COC3)n1
- EC50: < 400 nM

SMILES: O=C1Nc2ccccc2C(c2ccccc2)=N[C@@H]1Nc1nnc(-c2ncc(F)cc2N2CC3CCC(C2)O3)o1
- EC50: < 400 nM

SMILES: O=C1Nc2ccccc2C(c2ccccc2)=N[C@@H]1Nc1nnc(-c2cnc(C(F)(F)F)nc2N2CC3CCC(C2)O3)o1
- EC50: > 800 nM

SMILES: O=C1Nc2ccccc2C(c2ccccc2)=N[C@@H]1Nc1nnc(-c2ncc3ccccc3c2N2CCOCC2)o1
- EC50: > 800 nM

SMILES: N#Cc1c[nH]c2cc(-c3nnc(N[C@H]4N=C(c5ccccc5)c5ccccc5NC4=O)o3)ccc12
- EC50: > 800 nM

SMILES: O=C1Nc2ccccc2C(c2ccccc2)=N[C@@H]1Nc1nnc(-c2ncc(C(F)(F)F)cc2C2CC2)o1
- EC50: > 800 nM

SMILES: O=C1Nc2ccccc2C(c2ccccc2)=N[C@@H]1Nc1nnc(-c2ccc(C(F)(F)F)nc2N2C3CCC2COC3)o1
- EC50: > 800 nM

SMILES: N#Cc1cnc(-c2nnc(N[C@H]3N=C(c4ccccc4)c4ccccc4NC3=O)o2)c(N2CCOCC2)c1
- EC50: < 400 nM

SMILES: N#Cc1ccc(-c2nnc(N[C@H]3N=C(c4ccccc4)c4ccccc4NC3=O)o2)c(N2C3CCC2COC3)c1
- EC50: < 400 nM

SMILES: Cc1ccc(-c2nnc(N[C@H]3N=C(c4ccccc4)c4ccccc4NC3=O)o2)c(N2CCOC[C@H]2C)n1
- EC50: < 400 nM

SMILES: N#Cc1cc(N2CCOCC2)c(-c2nnc(N[C@H]3N=C(c4ccccc4)c4ccccc4NC3=O)o2)s1
- EC50: < 400 nM

SMILES: C[C@@H]1CN(c2cc(F)ccc2-c2nnc(N[C@H]3N=C(c4ccccc4)c4ccccc4NC3=O)o2)C[C@H](C)O1
- EC50: > 800 nM

SMILES: N#Cc1cnc(-c2nnc(N[C@H]3N=C(c4ccccc4)c4ccccc4NC3=O)o2)c(N2CC3CCC(C2)O3)c1
- EC50: < 400 nM

SMILES: N#CC1CN(c2ncccc2-c2nnc(NC3N=C(c4ccccc4)c4ccccc4NC3=O)o2)C1 (centres undefined)
- EC50: > 800 nM

- EC50: > 800 nM
SMILES: CCOC(=O)c1ncc(C(F)(F)F)cc1-c1ccncc1

SMILES: C[C@@H]1CN(c2cc(C#N)cnc2-c2nnc(N[C@H]3N=C(c4ccccc4)c4ccccc4NC3=O)o2)CCO1
- EC50: in the range around 600 nM

SMILES: N#Cc1ccc(-c2nnc(N[C@H]3N=C(c4ccccc4)c4ccccc4NC3=O)o2)c(N2CC3CCC(C2)O3)c1
- EC50: < 400 nM

SMILES: COc1ccc(-c2nnc(N[C@H]3N=C(c4ccccc4)c4ccccc4NC3=O)o2)c(N2CCOCC2)n1
- EC50: < 400 nM

SMILES: C[C@@H]1COCCN1c1cc(C(F)(F)F)cnc1-c1nnc(N[C@H]2N=C(c3ccccc3)c3ccccc3NC2=O)o1
- EC50: < 400 nM

SMILES: C[C@H]1CN(c2cc(C#N)cnc2-c2nnc(N[C@H]3N=C(c4ccccc4)c4ccccc4NC3=O)o2)CCO1
- EC50: < 400 nM

SMILES: N#CCCNc1cc(C(F)(F)F)cnc1-c1nnc(N[C@H]2N=C(c3ccccc3)c3ccccc3NC2=O)o1
- EC50: < 400 nM

SMILES: O=C1Nc2ccccc2C(c2ccccc2)=NC1Nc1nnc(C23CCN(CC2)CC3)o1 (centres undefined)
- EC50: > 800 nM

SMILES: O=C1Nc2ccccc2C(c2ccccc2)=N[C@@H]1Nc1nnc(-c2ccc(F)cc2N2CC3CCC(C2)O3)o1
- EC50: in the range around 600 nM

SMILES: O=C1Nc2ccccc2C(c2ccccc2)=N[C@@H]1Nc1nnc(-c2ncc(C3CCCCC3)cc2N2CCOCC2)o1
- EC50: < 400 nM

SMILES: CN1CCN(c2cc(C(F)(F)F)cnc2-c2nnc(N[C@H]3N=C(c4ccccc4)c4ccccc4NC3=O)o2)CC1
- EC50: in the range around 600 nM

SMILES: C[C@@H]1CN(c2cc(C(F)(F)F)cnc2-c2nnc(N[C@H]3N=C(c4ccccc4)c4ccccc4NC3=O)o2)CCO1
- EC50: < 400 nM

SMILES: COCCNc1cc(C(F)(F)F)cnc1-c1nnc(N[C@H]2N=C(c3ccccc3)c3ccccc3NC2=O)o1
- EC50: < 400 nM

SMILES: O=C1Nc2ccccc2C(c2ccccc2)=N[C@@H]1Nc1nnc(-c2ncc(C(F)(F)F)cc2N2CCC(O)CC2)o1
- EC50: > 800 nM

- EC50: > 800 nM
SMILES: CCOC(=O)c1ncc(C(F)(F)F)cc1N

SMILES: Cn1cc(-c2cc(C#N)cnc2-c2nnc(N[C@H]3N=C(c4ccccc4)c4ccccc4NC3=O)o2)ccc1=O
- EC50: > 800 nM

SMILES: O=C1Nc2ccccc2C(c2ccccc2)=N[C@@H]1Nc1nnc(-c2nc(C3CC3)ccc2N2CCOCC2)o1
- EC50: < 400 nM

SMILES: CNc1cc(C(F)(F)F)cnc1-c1nnc(N[C@H]2N=C(c3ccccc3)c3ccccc3NC2=O)o1
- EC50: > 800 nM

SMILES: CC(C)(O)CNc1cc(C(F)(F)F)cnc1-c1nnc(N[C@H]2N=C(c3ccccc3)c3ccccc3NC2=O)o1
- EC50: < 400 nM

- EC50: < 400 nM
SMILES: COC(=O)c1ccc(N2CCCC2)cc1N1CCOCC1

SMILES: O=C1Nc2ccccc2C(c2ccccc2)=N[C@@H]1Nc1nnc(-c2nnsc2N2CCOCC2)o1
- EC50: < 400 nM

SMILES: N#Cc1ccc(-c2nnc(N[C@H]3N=C(c4ccccc4)c4ccccc4NC3=O)o2)c(-c2ccsc2)c1
- EC50: > 800 nM

SMILES: C[C@H]1CN(c2cc(C(F)(F)F)cnc2-c2nnc(N[C@H]3N=C(c4ccccc4)c4ccccc4NC3=O)o2)CCO1
- EC50: < 400 nM
